Data published in US10730870B2, “Compounds and methods for the enhanced degradation of targeted proteins” (Arvinas, Inc., priority 2015, dated 2020).

Molecular target: VHL (Homo sapiens (Human), UniProt P40337)
Assay: VHL fluorescence polarization (FP) competition assay
Format: binding

Row | IC50 (1% in DMSO) [nM] | IC50 (10% in DMSO) [nM] | IC50 (0.25% in DMSO) [nM] | SMILES
1 | 2380 | 2280 |  | CC(C)[C@@H](C(=O)N1C[C@H](O)C[C@H]1C(=O)NCc1ccc(-c2scnc2Br)cc1)N1Cc2ccccc2C1=O [Example 1, (2S,4R)—N-(4-(4-bromothiazol-5-yl)benzyl)-4-hydroxy-1-((S)-3-methyl-2-(1-oxoisoindolin-2-yl)butanoyl)pyrrolidine-2-carboxamide]
2 | 732 | 533 | 2860 | CC(C)[C@@H](C(=O)N1C[C@H](O)C[C@H]1C(=O)NCc1ccc(-c2scnc2C2CC2)cc1)N1Cc2ccccc2C1=O [Example 2, (2S,4R)—N-(4-(4-cyclopropylthiazol-5-yl)benzyl)-4-hydroxy-1-((S)-3-methyl-2-(1-oxoisoindolin-2-yl)butanoyl)pyrrolidine-2-carboxamide]
3 | 1220 | 1940 | 3340 | C=Cc1ncsc1-c1ccc(CNC(=O)[C@@H]2C[C@@H](O)CN2C(=O)[C@H](C(C)C)N2Cc3ccccc3C2=O)cc1 [Example 4, (2S,4R)-4-hydroxy-1-((S)-3-methyl-2-(1-oxoisoindolin-2-yl)butanoyl)-N-(4-(4-vinylthiazol-5-yl)benzyl)pyrrolidine-2-carboxamide]
4 | 799 | 1580 | 7720 | CCc1ncsc1-c1ccc(CNC(=O)[C@@H]2C[C@@H](O)CN2C(=O)[C@H](C(C)C)N2Cc3ccccc3C2=O)cc1 [Example 5, (2S,4R)—N-(4-(4-ethylthiazol-5-yl)benzyl)-4-hydroxy-1-((S)-3-methyl-2-(1-oxoisoindolin-2-yl)butanoyl)pyrrolidine-2-carboxamide]
5 | 7510 | 8520 |  | Cc1ncsc1-c1ccc(CNC(=O)[C@@H]2C[C@@H](O)CN2C(=O)[C@H](C(C)C)N2Cc3cccc(Cl)c3C2=O)cc1 [Example 7, (2S,4R)-1-((S)-2-(7-cloro-1-oxoisoindolin-2-yl)-3-methylbutanoyl)-4-hydroxy-N-(4-(4-methylthiazol-5-yl)benzyl)pyrrolidine-2-carboxamide]
6 | 619 | 1330 | 3040 | Cc1ncsc1-c1ccc(CNC(=O)[C@@H]2C[C@@H](O)CN2C(=O)[C@H](C(C)C)N2Cc3cccc(F)c3C2=O)cc1 [Example 8, (2S,4R)-1-((S)-2-(7-fluoro-1-oxoisoindolin-2-yl)-3-methylbutanoyl)-4-hydroxy-N-(4-(4-methylthiazol-5-yl)benzyl)pyrrolidine-2-carboxamide]
7 | 309 | 498 | 1280 | Cc1ncsc1-c1ccc(CNC(=O)[C@@H]2C[C@@H](O)CN2C(=O)[C@H](C(C)C)N2Cc3ccc(F)cc3C2=O)cc1 [Example 9]
8 | ~6730 | 295000 |  | Cc1ncsc1-c1ccc(CNC(=O)[C@@H]2C[C@@H](O)CN2C(=O)[C@@H](C(C)C)N2Cc3ccc(F)cc3C2=O)cc1 [Example 10, (2S,4R)-1-((R)-2-(6-fluoro-1-oxoisoindolin-2-yl)-3-methylbutanoyl)-4-hydroxy-N-(4-(4-methylthiazol-5-yl)benzyl)pyrrolidine-2-carboxamide]
9 | 1340 | 2940 | 3370 | CCCC(=O)N[C@H](C(=O)N1C[C@H](O)C[C@H]1C(=O)NCc1ccc(-c2scnc2C)cc1)C(C)(C)C [Example 13, (2S,4R)-1-((S)-2-butyramido-3,3-dimethylbutanoyl)-4-hydroxy-N-(4-(4-methylthiazol-5-yl)benzyl)pyrrolidine-2-carboxamide]
10 | 4630 | 13300 | 7150 | Cc1ncsc1-c1ccc(CNC(=O)[C@@H]2C[C@@H](O)CN2C(=O)[C@@H](NC(=O)C(C)(C)C)C(C)(C)C)cc1 [Example 14, (2S,4R)-1-((S)-3,3-dimethyl-2-pivalamidobutanoyl)-4-hydroxy-N-(4-(4-methylthiazol-5-yl)benzyl)pyrrolidine-2-carboxamide]
11 | 24500 | 81900 | 1220 | COc1cccc2c1C(=O)N([C@H](C(=O)N1C[C@H](O)C[C@H]1C(=O)NCc1ccc(-c3scnc3C)cc1)C(C)C)C2 [Example 15, (2S,4R)-4-hydroxy-1-((S)-2-(7-methoxy-1-oxoisoindolin-2-yl)-3-methylbutanoyl)-N-(4-(4-methylthiazol-5-yl)benzyl)pyrrolidine-2-carboxamide]
12 | 265 | 1800 | 2950 | Cc1ncsc1-c1ccc(CNC(=O)[C@@H]2C[C@@H](O)CN2C(=O)[C@H](C(C)C)N2Cc3cc(F)ccc3C2=O)cc1 [Example 16, (2S,4R)-1-((S)-2-(5-fluoro-1-oxoisoindolin-2-yl)-3-methylbutanoyl)-4-hydroxy-N-(4-(4-methylthiazol-5-yl)benzyl)pyrrolidine-2-carboxamide]
13 | 317 | 1070 | 2200 | Cc1ncsc1-c1ccc(CNC(=O)[C@@H]2C[C@@H](O)CN2C(=O)[C@H](C(C)C)N2Cc3ccc(C#N)cc3C2=O)cc1 [Example 17, (2S,4R)-1-((S)-2-(6-cyano-1-oxoisoindolin-2-yl)-3-methylbutanoyl)-4-hydroxy-N-(4-(4-methylthiazol-5-yl)benzyl)pyrrolidine-2-carboxamide]
14 | 855 | 2720 | 5500 | Cc1ncsc1-c1ccc(CNC(=O)[C@@H]2C[C@@H](O)CN2C(=O)[C@@H](NC(=O)CC(C)C)C(C)(C)C)cc1 [Example 18, (2S,4R)-1-((S)-3,3-dimethyl-2-(3-methylbutanamido)butanoyl)-4-hydroxy-N-(4-(4-methylthiazol-5-yl)benzyl)pyrrolidine-2-carboxamide]
15 | 937 | 1650 | 3770 | Cc1ncsc1-c1ccc(CNC(=O)[C@@H]2C[C@@H](O)CN2C(=O)[C@@H](NC(=O)CC2CCCCC2)C(C)(C)C)cc1 [Example 19, (2S,4R)-1-((S)-2-(2-cyclohexylacetamido)-3,3-dimethylbutanoyl)-4-hydroxy-N-(4-(4-methylthiazol-5-yl)benzyl)pyrrolidine-2-carboxamide]
16 | 1050 | 1150 | 4960 | Cc1ncsc1-c1ccc(CNC(=O)[C@@H]2C[C@@H](O)CN2C(=O)[C@@H](NC(=O)CCC2CCCCC2)C(C)(C)C)cc1 [Example 20, (2S,4R)-1-((S)-2-(3-cyclohexylpropanamido)-3,3-dimethylbutanoyl)-4-hydroxy-N-(4-(4-methylthiazol-5-yl)benzyl)pyrrolidine-2-carboxamide]
17 | 6250 | 8290 |  | CSC[C@H](NC(=O)CCC(C)C)C(=O)N1C[C@H](O)C[C@H]1C(=O)NCc1ccc(-c2scnc2C)cc1 [Example 22, (2S,4R)-4-hydroxy-1-((R)-2-(4-methylpentanamido)-3-(methylthio)propanoyl)-N-(4-(4-methylthiazol-5-yl)benzyl)pyrrolidine-2-carboxamide]
18 | 2510 | 6040 | 1140 | CC(C)[C@@H](C(=O)N1C[C@H](O)C[C@H]1C(=O)NCc1ccc(Br)cc1)N1Cc2ccccc2C1=O [Example 23, (2S,4R)—N-(4-bromobenzyl)-4-hydroxy-1-((S)-3-methyl-2-(1-oxoisoindolin-2-yl)butanoyl)pyrrolidine-2-carboxamide]
19 | 8650 | 28000 | 1390 | CC(C)[C@@H](C(=O)N1C[C@H](O)C[C@H]1C(=O)N[C@@H](C)c1ccc(Br)cc1)N1Cc2ccccc2C1=O [Example 24, (2S,4R)—N—((S)-1-(4-bromophenyl)ethyl)-4-hydroxy-1-((S)-3-methyl-2-(1-oxoisoindolin-2-yl)butanoyl)pyrrolidine-2-carboxamide]
20 | 1330 | 1670 | 2380 | Cc1ncsc1-c1ccc(CNC(=O)[C@@H]2C[C@@H](O)CN2C(=O)[C@H](C(C)C)N2Cc3cc(Br)ccc3C2=O)cc1 [Example 25, (2S,4R)-1-((S)-2-(5-bromo-1-oxoisoindolin-2-yl)-3-methylbutanoyl)-4-hydroxy-N-(4-(4-methylthiazol-5-yl)benzyl)pyrrolidine-2-carboxamide]
21 | 941 | 441 | 2940 | Cc1ncsc1-c1ccc(CNC(=O)[C@@H]2C[C@@H](O)CN2C(=O)[C@H](C(C)C)N2Cc3c(Br)cccc3C2=O)cc1 [Example 26, (2S,4R)-1-((S)-2-(4-bromo-1-oxoisoindolin-2-yl)-3-methylbutanoyl)-4-hydroxy-N-(4-(4-methylthiazol-5-yl)benzyl)pyrrolidine-2-carboxamide]
22 | 3040 | 8310 | ~1570 | Cc1ncsc1-c1ccc(CNC(=O)[C@@H]2C[C@@H](O)CN2C(=O)[C@@H](NC(=O)C(C)C)C(C)(C)C)cc1 [Example 27, (2S,4R)-4-hydroxy-1-((S)-2-isobutyramido-3,3-dimethylbutanoyl)-N-(4-(4-methylthiazol-5-yl)benzyl)pyrrolidine-2-carboxamide]
23 | 2210 | 3600 | 4470 | Cc1ncsc1-c1ccc(CNC(=O)[C@@H]2C[C@@H](O)CN2C(=O)[C@@H](NC(=O)CCC(C)C)C(C)(C)C)cc1 [Example 28, (2S,4R)-1-((S)-3,3-dimethyl-2-(4-methylpentanamido)butanoyl)-4-hydroxy-N-(4-(4-methylthiazol-5-yl)benzyl)pyrrolidine-2-carboxamide]
24 | 905 | 1850 | 2420 | Cc1ncsc1-c1ccc(CNC(=O)[C@@H]2C[C@@H](O)CN2C(=O)[C@@H](NC(=O)c2ccccc2)C(C)(C)C)cc1 [Example 29, (2S,4R)-1-((S)-2-benzamido-3,3-dimethylbutanoyl)-4-hydroxy-N-(4-(4-methylthiazol-5-yl)benzyl)pyrrolidine-2-carboxamide]

Row | SMILES | IC50 (1% in DMSO) [nM] | IC50 (10% in DMSO) [nM] | IC50 (0.25% in DMSO) [nM]
25 | Cc1ncsc1-c1ccc(CNC(=O)[C@@H]2C[C@@H](O)CN2C(=O)[C@H](C(C)C)N2Cc3ccccc3C2=O)cc1 [Example 6, (2S,4R)-4-hydroxy-1-((S)-3-methyl-2-(1-oxoisoindolin-2-yl)butanoyl)-N-(4-(4-methylthiazol-5-yl)benzyl)pyrrolidine-2-carboxamide] | 697 | 1480 | 6370
